Data: patent publication US7074801B1, “Nitrogen-containing condensed cyclic compound having a pyrazolyl group as a substituent group and pharmaceutical composition thereof” (Eisai Co., Ltd., priority 2001, dated 2006)
Where a name gives a salt, the structure may show the parent alone. Read-outs that look alike come from different tables or passages of the source.

Test system: STAT6
Assay: Inhibitory test on STAT6 activation: IL-4-induced alkali phosphatase STAT6 reporter in 293 cells stably expressing the STAT6 gene and STAT6 reporter gene
Type: cell-based
Details: HEK293, 1 ng/ml human recombinant IL-4, 16 hours, 293 cells with STAT6 reporter, read-out: Inhibitory activity IC50 (concentration at which the alkali phosphatase activity induced by IL-4 was inhibited by 50%)
Method in brief: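 HEK293 clone stably carrying STAT6 and a STAT6-element-driven alkaline phosphatase reporter, 5000 cells/well. Compound (DMSO ≤0.1%) plus 1 ng/ml human IL-4 for 16 hours. Supernatant heat-treated 65° C. 10 minutes, then alkaline phosphatase measured fluorometrically in carbonate buffer.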

Compound	IC50 (Table 2) [nM]	IC50 (Table 1) [nM]
NS(=O)(=O)c1ccc(NC(=O)c2ccc(-c3cnc4ccc(-c5cn[nH]c5)cn34)cc2F)cc1 [Example 700, N1-[4-(Aminosulfonyl)phenyl]-2-fluoro-4-[6-(1H-4-pyrazolyl)imidazo[1,2-a]pyridin-3-yl]benzamide hydrochloride]	10 to 100	–
O=C(NC1(c2ccc(F)cc2)CC1)c1ccc(-c2cnc3ccc(-c4cn[nH]c4)cn23)cc1F [Example 663, N1-[1-(4-Fluorophenyl)cyclopropyl]-2-fluoro-4-[6-(1H-4-pyrazolyl)imidazo[1,2-a]pyridin-3-yl]benzamide hydrochloride]	–	< 10
COc1nnc(-c2cnc3ccc(-c4c[nH]nc4-c4ccc(F)cc4F)cn23)s1 [Example 562, 6-[3-(2,4-Fluorophenyl)-1H-pyrazol-4-yl]-3-(5-methoxy[1,3,4]thiadiazol-2-yl)imidazo[1,2-a]pyridine]	–	< 10
N#Cc1ccc(-c2cnc3ccc(-c4c[nH]nc4-c4ccc(F)cc4)cn23)s1 [Example 71, 5-{6-[3-(4-Fluorophenyl)-1H-4-pyrazolyl]imidazo[1,2-a]-pyridin-3-yl}-2-thiophene carboxynitrile dihydrochloride]	–	10 to 100
N#CCC[C@H](O)c1nc2ccc(-c3cnc4ccc(-c5c[nH]nc5-c5ccc(F)cc5)cn34)cc2s1 [Example 628, (4S)-4-(6-{6-[3-(4-Fluorophenyl)-1H-4-pyrazolyl]imidazo-[1,2-a]pyridin-3-yl)-1,3-benzothiazol-2-yl)-4-hydroxybutane nitrile dihydrochloride]	–	< 10
Fc1cc(OC2CCCC2)ccc1-c1n[nH]cc1-c1ccc2ncc(-c3noc(C4CC4)n3)n2c1 [Example 584, 6-[3-(4-Cyclopentyloxy-2-fluorophenyl)-1H-4-pyrazolyl]-3-(5-cyclopropyl-[1,2,4]oxadiazol-3-yl)-imidazo[1,2-a]-pyridine trihydrochloride]	–	< 10
O=C(Nc1ccc(Cl)cn1)c1ccc(-c2cnc3ccc(-c4cn[nH]c4)cn23)cc1F [Example 680, N1-(5-Chloro-2-pyridyl)-2-fluoro-4-[6-(1H-4-pyrazolyl)-imidazo[1,2-a]pyridin-3-yl]benzamide dihydrochloride]	–	< 10
N#Cc1ccc(-c2cnc3ccc(-c4c[nH]nc4-c4ccc(F)cc4)cn23)cc1 [Example 77, 4-{6-[3-(4-Fluorophenyl)-1H-4-pyrazolyl]imidazo[1,2-a]-pyridin-3-yl}benzonitrile dihydrochloride]	–	< 10
Cc1cnc(NC(=O)c2ccc(-c3cnc4ccc(-c5cn[nH]c5)cn34)nc2)s1 [Example 655, N3-(5-Methyl-1,3-thiazol-2-yl)-6-[6-(1H-4-pyrazolyl)-imidazo[1,2-a]pyridin-3-yl]nicotinic acid amide trihydrochloride]	–	10 to 100
O=C(NC1(c2ccc(F)cc2F)CC1)c1ccc(-c2cnc3ccc(-c4cn[nH]c4)cn23)cc1F [Example 661, N1-[1-(2,4-Difluorophenyl)cyclopropyl]-2-fluoro-4-[6-(1H-4-pyrazolyl)imidazo[1,2-a]pyridin-3-yl]benzamide hydrochloride]	–	< 10
Fc1ccc(-c2n[nH]cc2-c2ccc3ncc(-c4nnc(C5CC5)o4)n3c2)c(F)c1 [Example 557, 3-(5-Cyclopropyl[1,3,4]oxadiazol-2-yl)6-[3-(2,4-difluorophenyl)-1H-pyrazol-4-yl]imidazo[1,2-a]pyridine]	–	< 10
Fc1ccc(-c2n[nH]cc2-c2ccc3ncc(-c4noc(C5CC5)n4)n3c2)c(F)c1 [Example 576, 3-(5-Cyclopropyl-[1,2,4]oxadiazol-3-yl)-6-[3-(2,4-difluorophenyl)-1H-4-pyrazolyl]-imidazo[1,2-a]pyridine trihydrochloride]	–	< 10
CCc1ccc(C(=O)C(C)(C)NC(=O)c2ccc(-c3cnc4ccc(-c5cn[nH]c5)cn34)cc2F)cc1 [Example 676, N1-[2-(4-Ethylphenyl)-1,1-dimethyl-2-oxyethyl]-2-fluoro-4-[6-(1H-4-pyrazolyl)imidazo[1,2-a]pyridin-3-yl]benzamide hydrochloride]	–	10 to 100
CSc1nnc(-c2cnc3ccc(-c4c[nH]nc4-c4ccc(F)cc4)cn23)o1 [Example 555, 6-[3-(4-Fluorophenyl)-1H-pyrazol-4-yl]-3-(5-methylsulfanyl[1,3,4]oxadiazol-2-yl)imidazo[1,2-a]pyridine]	–	< 10
CS(=O)(=O)c1ccc(-c2n[nH]cc2-c2ccc3ncc(-c4ccc(F)cc4)n3c2)cc1 [Example 101, 3-(4-Fluorophenyl)-6-{3-[4-(methylsulfonyl)phenyl]-1H-4-pyrazolyl}imidazo[1,2-a]pyridine dihydrochloride]	–	10 to 100
CC(C)=Cc1nc(-c2cnc3ccc(-c4c[nH]nc4-c4ccccc4F)cn23)no1 [Example 592]	–	< 10
N#Cc1ccc(-c2n[nH]cc2-c2ccc3ncc(-c4ccc(C(N)=O)cc4)n3c2)cc1 [Example 108, 4-{6-[3-(4-Cyanophenyl)-1H-4-pyrazolyl]imidazo[1,2-a]-pyridin-3-yl}benzamide dihydrochloride]	–	< 10
Cc1cc(NC(=O)c2ccc(-c3cnc4ccc(-c5cn[nH]c5)cn34)cc2F)on1 [Example 688, N1-(3-Methylisoxazol-5-yl)-2-fluoro-4-[6-(1H-4-pyrazolyl)-imidazo[1,2-a]pyridin-3-yl]benzamide dihydrochloride]	–	< 10

Next, values leading:

IC50 (Table 2) [nM]	IC50 (Table 1) [nM]	Compound
< 10	–	CNc1ccc(-c2n[nH]cc2-c2ccc3ncnc(-c4ccc(S(C)(=O)=O)s4)c3c2)cc1 [Example 883, (4-{4-[4-(5-Methylsulfonylthiophen-2-yl)quinazolin-6-yl]-1H-pyrazol-3-yl}phenyl) methylamine]
< 10	–	CSc1ccc(-c2n[nH]cc2-c2ccc3ncnc(-c4ccc(S(C)(=O)=O)s4)c3c2)cc1 [Example 895, 6-[3-(4-Methylsulfanylphenyl)-1H-pyrazol-4-yl]-4-(5-methylsulfonylthiophen-2-yl) quinazoline]
< 10	–	CNS(=O)(=O)c1cccc(N2CCN(c3ncnc4ccc(-c5cn[nH]c5)cc34)CC2)c1 [Example 952, N-Methyl-3-{4-[6-(1H-pyrazol-4-yl)quinazolin-4-yl]piperazin-1-yl}benzene sulfonamide tri-trifluoroacetate]
100 to 1000	–	CS(=O)(=O)c1ccc(-c2ncnc3ccc(-c4c[nH]nc4COc4ccc(F)cc4F)cc23)s1 [Example 905, 6-[3-(2,4-Difluorophenoxymethyl)-1H-pyrazol-4-yl]-4-(5-methylsulfonylthiophen-2-yl) quinazoline]
< 10	–	O=S(=O)(c1ccc(-c2ncnc3ccc(-c4c[nH]nc4-c4ccc(F)cc4)cc23)s1)C1CC1 [Example 902, 4-(5-Cyclopropanesulfonylthiophen-2-yl)-6-[3-(4-fluorophenyl)-1H-pyrazol-4-yl] quinazoline]
100 to 1000	–	O=C(NC1CC1)c1ccc(-c2ncnc3ccc(-c4c[nH]nc4-c4ccc(F)cc4F)cc23)cc1F [Example 873, N-Cyclopropyl-4-{6-[3-(2,4-difluorophenyl)-1H-pyrazol-4-yl]quinazolin-4-yl}-2-fluorobenzamide dihydrochloride]
100 to 1000	–	Cc1ccc(S(=O)(=O)N2CCN(c3ncnc4ccc(-c5cn[nH]c5)cc34)CC2)cc1 [Example 971, 4-[4-(Toluene-4-sulfonyl)piperazin-1-yl]-6-(1H-pyrazol-4-yl)quinazoline di-trifluoroacetate]
< 10	–	O=S1(=O)CCCN1c1cccc(N2CCN(c3ncnc4ccc(-c5cn[nH]c5)cc34)CC2)c1 [Example 1000, 4-{4-[3-(1,1-Dioxo-isothiazolidin-2-yl)phenyl]piperazin-1-yl}-6-(1H-pyrazol-4-yl)quinazoline tri-trifluoroacetate]
10 to 100	–	CS(=O)(=O)c1ccccc1NC(=O)c1ccc(-c2cnc3ccc(-c4cn[nH]c4)cn23)cc1F [Example 701, N1-[2-(Methylsulfonyl)phenyl]-2-fluoro-4-[6-(1H-4-pyrazolyl)imidazo[1,2-a]pyridin-3-yl]benzamide hydrochloride]
< 10	–	Cn1cnc(-c2ncnc3ccc(-c4c[nH]nc4-c4c(F)cccc4F)cc23)c1 [Example 911, 6-[3-(2,6-Difluorophenyl)-1H-pyrazol-4-yl]-4-(1-methyl-1H-imidazol-4-yl) quinazoline]
< 10	–	CS(=O)(=O)c1cccc(N2CCN(c3ncnc4ccc(-c5c[nH]nc5-c5ccc(C#N)s5)cc34)CC2)c1 [Example 967, 5-(4-{4-[4-(3-Methylsulfonylphenyl)piperazin-1-yl]quinazolin-6-yl}-1H-pyrazol-3-yl)thiophen-2-carbonitrile tri-trifluoroacetate]
< 10	–	O=C(NC1=NCCS1)c1ccc(-c2cnc3ccc(-c4cn[nH]c4)cn23)cc1F [Example 712, N1-(4,5-Dihydro-1,3-thiazol-2-yl)-2-fluoro-4-[6-(1H-4-pyrazolyl)imidazo[1,2-a]pyridin-3-yl]benzamide dihydrochloride]
10 to 100	–	CS(=O)(=O)c1cccc(N2CCCN(c3ncnc4ccc(-c5cn[nH]c5)cc34)CC2)c1 [Example 1002, 4-{4-(3-Methylsulfonyl)phenyl}-1,4-diazepan-1-yl}-6-(1H-4-pyrazolyl)quinazoline hydrochloride]
< 10	–	O=C(Nc1cccc(N2CCN(c3ncnc4ccc(-c5cn[nH]c5)cc34)CC2)c1)C1CC1 [Example 976, Cyclopropanecarboxylic acid (3-{4-[6-(1H-pyrazol-4-yl)quinazolin-4-yl]piperazin-1-yl}phenyl)amide tri-trifluoroacetate]
10 to 100	–	CC(NC(=O)c1ccc(-c2cnc3ccc(-c4cn[nH]c4)cn23)cc1F)c1ccccn1 (stereo not drawn) [Example 707, N1-[1-(2-Pyridyl)ethyl]-2-fluoro-4-[6-(1H-4-pyrazolyl)-imidazo[1,2-a]pyridin-3-yl]benzamide dihydrochloride]
